Among the data in article PMC8636460, “Pharmacological and Biophysical Characteristics of Picrotoxin-Resistant, δSubunit-Containing GABAA Receptors” (Frontiers in Synaptic Neuroscience, 2021) are EC50 values, retold here.

The target of assay [1] is T1, α4β2δ GABAAR (human α4, rat β2, rat δ with N-terminal FLAG) (Rattus norvegicus (beta2, delta); Homo sapiens (alpha4), UniProt P18506+P48169+P63138, P18506:T285Y).
T1 construct: gene GABRA4; free full subunits transiently transfected (cDNA α:β:δ 1:1:2) in mouse Neuro-2a cells
T1 sequence (P48169 36-554): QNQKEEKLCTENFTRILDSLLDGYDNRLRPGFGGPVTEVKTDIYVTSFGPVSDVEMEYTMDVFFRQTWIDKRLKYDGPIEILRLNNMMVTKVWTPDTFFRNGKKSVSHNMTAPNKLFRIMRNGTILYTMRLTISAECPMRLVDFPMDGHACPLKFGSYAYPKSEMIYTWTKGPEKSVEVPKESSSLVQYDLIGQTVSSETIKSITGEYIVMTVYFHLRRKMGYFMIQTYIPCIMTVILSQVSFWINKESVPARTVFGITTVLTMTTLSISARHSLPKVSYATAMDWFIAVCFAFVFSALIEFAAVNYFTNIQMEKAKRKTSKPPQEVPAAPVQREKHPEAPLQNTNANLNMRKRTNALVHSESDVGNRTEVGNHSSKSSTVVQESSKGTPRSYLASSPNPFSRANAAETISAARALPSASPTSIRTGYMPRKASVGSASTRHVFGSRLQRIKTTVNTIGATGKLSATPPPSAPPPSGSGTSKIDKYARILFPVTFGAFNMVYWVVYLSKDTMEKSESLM
T1 sequence (P63138 26-474): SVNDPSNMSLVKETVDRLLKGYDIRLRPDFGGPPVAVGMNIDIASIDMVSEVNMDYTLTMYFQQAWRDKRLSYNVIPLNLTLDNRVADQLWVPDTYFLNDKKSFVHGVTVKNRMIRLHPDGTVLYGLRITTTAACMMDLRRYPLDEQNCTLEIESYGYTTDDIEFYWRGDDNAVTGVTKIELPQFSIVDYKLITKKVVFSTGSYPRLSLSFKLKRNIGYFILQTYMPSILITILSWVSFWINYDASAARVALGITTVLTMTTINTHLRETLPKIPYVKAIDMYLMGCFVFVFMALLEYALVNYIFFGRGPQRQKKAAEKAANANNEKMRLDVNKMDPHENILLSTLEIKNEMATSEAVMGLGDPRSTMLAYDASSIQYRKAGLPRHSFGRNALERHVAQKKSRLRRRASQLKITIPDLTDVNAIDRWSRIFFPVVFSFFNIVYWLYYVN
Briefly: whole-cell patch clamp in transfected N2a cells, agonist concentration response, Hill fit. The class given is cell-based.

The target of assay [2] is T2, α4β2δ GABAAR (human α4, rat β2, rat δ with N-terminal FLAG) (Rattus norvegicus (beta2, delta); Homo sapiens (alpha4), UniProt P18506+P48169+P63138).
T2 construct: gene GABRA4; free full subunits transiently transfected (cDNA α:β:δ 1:1:2) in mouse Neuro-2a cells
T2 sequence (P63138 26-474): as above
T2 sequence (P48169 36-554): as the sequence (P48169 36-554) above
T2 sequence (P18506 25-449): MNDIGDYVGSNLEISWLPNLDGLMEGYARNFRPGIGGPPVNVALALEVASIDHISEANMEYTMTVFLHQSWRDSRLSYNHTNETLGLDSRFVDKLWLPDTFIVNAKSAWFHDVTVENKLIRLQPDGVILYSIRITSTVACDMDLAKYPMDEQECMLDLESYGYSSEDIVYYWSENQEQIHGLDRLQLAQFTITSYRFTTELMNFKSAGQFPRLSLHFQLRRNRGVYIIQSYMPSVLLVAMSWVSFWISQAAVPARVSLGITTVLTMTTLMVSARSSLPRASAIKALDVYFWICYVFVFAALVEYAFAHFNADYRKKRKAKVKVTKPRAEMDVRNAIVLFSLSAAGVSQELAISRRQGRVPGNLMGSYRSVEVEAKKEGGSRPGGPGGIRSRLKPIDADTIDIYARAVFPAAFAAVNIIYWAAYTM
The description is as above. The class given is cell-based.

`Oc1noc2c1CCNC2` [THIP, 4,5,6,7-tetrahydroisoxazolo[5,4-c]pyridin-3-ol]: the EC50 amounted to 16.7 µM in assay [1] and 38.7 µM in assay [2].

As usually defined, the EC50 is the concentration that produces a half-maximal response. Higher therefore signals weaker potency.
